Assay results published in US5206233A, “Substituted thiazepines as central nervous system agents” (Warner-Lambert Company, priority 1991, dated 1993).
Structures can show the parent of a compound that is named as a salt.

How the values were obtained:
[1] = biological target: sigma receptor; experiment: 3-PPP binding (inhibition of (+)-[3H]-3-PPP, a sigma ligand, binding); details: inhibition of (+)-[3H]-3-PPP binding, method of Largent et al
[2] = test system: guinea pig ileum; experiment: inhibition of contraction of electrically stimulated guinea pig ileum; details: Cavia porcellus, read-out: Inhibition of Contraction of Electrical Stimulation Guinea Pig Ileum IC50
Protocol: (§1) The compounds of Formula I are valuable sigma ligands. […] Additionally, the compounds of Formula I were tested for their ability to inhibit locomotor activity in mice according to the assay described by McLean, J. R., et al, Pharmacology, Biochemistry and Behavior 8:97-99 (1978); for their ability to inhibit contractions of electrically stimulated guinea pig ileum according to the method of Campbell, B. G., et al, Journal of Neuroscience 9 3380-3384 (1989) and Bass, P., et al, Journal of Pharmacology and Experimental Therapeutics 186:183-198 (1973). These tests further support the antipsychotic activity of the compounds of Formula I. The above test methods are incorporated herein by reference. The data in the table show the activity of representative compounds of Formula I.

[3] = test system: locomotor activity in mice; experiment: inhibition of locomotor activity in mice; type: in vivo; details: Mus musculus, IP
Protocol: as §1

[4] = test system: sigma receptor; details: known antipsychotic agents; literature; cited from earlier work

SMILES	IC50 [1]	IC50 [2]	ED50 [3]	interaction with the sigma receptor (in words) [4]
COc1ccc(C2CCN(C)CCS2)cc1 (stereo not drawn) [Example 2, Hexahydro-7-(4-methoxyphenyl)-4-methyl-1,4-thiazepine, hydrochloride]	16.5 nM	–	–	–
CCN1CCSC(c2ccc(OC)cc2)CC1 (stereo not drawn) [Example 3, Hexahydro-7-(4-methoxyphenyl)-4-ethyl-1,4-thiazepine]	6.22 nM	–	–	–
COc1ccc(C2CCN(C(C)C)CCS2)cc1 (stereo not drawn) [Example 4, Hexahydro-7-(4-methoxyphenyl)-4-isopropyl-1,4-thiazepine, hydrochloride]	1.62 nM	–	–	–
CN1CCSC(c2ccc(Cl)cc2)CC1 (stereo not drawn) [Example 6, Hexahydro-7-(4-chlorophenyl)-4-methyl-1,4-thiazepine, hydrochloride]	121 nM	–	–	–
CCCN1CCSC(c2ccc(Cl)cc2)CC1 (stereo not drawn) [Example 10, Hexahydro-7-(4-chlorophenyl)-4-propyl-1,4-thiazepine]	21.3 nM	–	–	–
COc1ccc(C2CCN(CCCCc3ccncc3)CCS2)cc1 (stereo not drawn) [Example 12, Hexahydro-7-(4-methoxyphenyl)-4-[4-(4-pyridinyl)butyl]-1,4-thiazepine]	1.32 nM	7.3 µM	13.9 mg/kg	–
COc1ccc(C2CCN(CCCC(=O)c3cccnc3)CCS2)cc1 (stereo not drawn) [Example 13, 1-(3-Pyridinyl)-7-(4-methoxyphenyl)-4-(tetrahydro-1,4-thiazepin-4(2H)-yl)-1-butanone, dihydrochloride]	9.2 nM	–	–	–
Cl.c1ccc(C2CCN(CCCCc3ccncc3)CCS2)cc1 (stereo not drawn) [Example 14, Hexahydro-7-(phenyl)-4-[4-(4-pyridinyl)butyl]-1,4-thiazepine, hydrochloride]	6.39 nM	13.1 µM	13.1 mg/kg	–
c1ccc(C2CCN(CCCCc3cccnc3)CCS2)cc1 (stereo not drawn) [Example 15, Hexahydro-7-(phenyl)-4-[4-(3-pyridinyl)butyl]-1,4-thiazepine]	2.5 nM	4 µM	17.9 mg/kg	–
Clc1ccc(C2CCN(CCCCc3ccncc3)CCS2)cc1 (stereo not drawn) [Example 16, Hexahydro-7-(4-chlorophenyl)-4-[4-(4-pyridinyl)butyl]-1,4-thiazepine]	2.62 nM	–	19 mg/kg	–
O=C(CCCN1CCC(O)(c2ccc(Cl)cc2)CC1)c1ccc(F)cc1 [haloperidol]	–	–	–	interact with the sigma receptor
CCN1CCC[C@H]1CNC(=O)c1c(OC)ccc(Br)c1OC [remoxapride]	–	–	–	interact with the sigma receptor
C[C@@H]1CN(CCCn2c3ccccc3c3ccccc32)C[C@H](C)N1 [rimcazole]	–	–	–	interact with the sigma receptor
O=C1CC2(CCCC2)CC(=O)N1CCCCN1CCN(c2nsc3ccccc23)CC1 [tiospirone]	–	–	–	interact with the sigma receptor
